Converted amounts (≈) assume the structure as drawn.
Legend:
[1] = system: Staphylococcus aureus; assay: Antibacterial activity against vancomycin-susceptible Staphylococcus aureus RN4220; type: functional
[2] = system: Staphylococcus aureus; assay: Antibacterial activity against vancomycin A-resistant Staphylococcus aureus VRS2; type: functional
[3] = system: Enterococcus faecium; assay: Antibacterial activity against vancomycin-susceptible Enterococcus faecium SR-16972; type: functional; settings: SR16972
[4] = system: Enterococcus faecalis; assay: Antibacterial activity against vancomycin-susceptible Enterococcus faecalis SR1004; type: functional
[5] = system: Staphylococcus aureus; assay: Antibacterial activity against methicillin-resistant vancomycin-susceptible Staphylococcus aureus SR-3637; type: functional; settings: SR3637
[6] = system: Enterococcus faecalis; assay: Antibacterial activity against vancomycin B-resistant Enterococcus faecalis SR-23630; type: functional; settings: SR23630
[7] = system: Enterococcus faecium; assay: Antibacterial activity against vancomycin A-resistant Enterococcus faecium SR-7940; type: functional; settings: SR7940
[8] = system: Enterococcus faecalis; assay: Antibacterial activity against vancomycin A-resistant Enterococcus faecalis SR-7914; type: functional; settings: SR7914
[9] = system: Enterococcus faecium; assay: Antibacterial activity against vancomycin B-resistant Enterococcus faecium SR-23598; type: functional; settings: SR23598
[10] = Binding affinity to 8-Amino-octanoyl-D-Ala-D-Ala peptide by surface plasmon resonance

CN[C@H](CC(C)C)C(=O)N[C@H]1C(=O)N[C@@H](CC(N)=O)C(=O)N[C@H]2C(=O)N[C@H]3C(=O)N[C@H](C(=O)N[C@H](C(=O)O)c4cc(O)cc(O)c4-c4cc3ccc4O)[C@H](O)c3ccc(c(/C=C/CCCc4ccccc4)c3)Oc3cc2cc(c3O[C@@H]2O[C@H](CO)[C@@H](O)[C@H](O)[C@H]2O[C@H]2C[C@](C)(N)[C@H](O)[C@H](C)O2)Oc2ccc(cc2/C=C/CCCc2ccccc2)[C@H]1O
MIC [1]: 32 µg/mL (≈ 19.2 µM)
MIC [2]: > 64 µg/mL
MIC [3]: 32 µg/mL (≈ 19.2 µM)
MIC [4]: 32 µg/mL (≈ 19.2 µM)
MIC [5]: 64 µg/mL (≈ 38.4 µM)
MIC [6]: > 64 µg/mL
MIC [7]: > 64 µg/mL
MIC [8]: > 64 µg/mL
MIC [9]: > 64 µg/mL

CN[C@H](CC(C)C)C(=O)N[C@H]1C(=O)N[C@@H](CC(N)=O)C(=O)N[C@H]2C(=O)N[C@H]3C(=O)N[C@H](C(=O)N[C@H](C(=O)O)c4cc(O)cc(O)c4-c4cc3ccc4O)[C@H](O)c3ccc(c(-c4ccccc4OC)c3)Oc3cc2cc(c3O[C@@H]2O[C@H](CO)[C@@H](O)[C@H](O)[C@H]2O[C@H]2C[C@](C)(N)[C@H](O)[C@H](C)O2)Oc2ccc(cc2Cl)[C@H]1O
MIC [1]: 4 µg/mL (≈ 2.63 µM)
MIC [2]: 64 µg/mL (≈ 42.1 µM)
MIC [3]: 4 µg/mL (≈ 2.63 µM)
MIC [4]: 8 µg/mL (≈ 5.26 µM)
MIC [5]: 8 µg/mL (≈ 5.26 µM)
MIC [6]: > 64 µg/mL
MIC [7]: > 64 µg/mL
MIC [8]: > 64 µg/mL
MIC [9]: > 64 µg/mL

CN[C@H](CC(C)C)C(=O)N[C@H]1C(=O)N[C@@H](CC(N)=O)C(=O)N[C@H]2C(=O)N[C@H]3C(=O)N[C@H](C(=O)N[C@H](C(=O)O)c4cc(O)cc(O)c4-c4cc3ccc4O)[C@H](O)c3ccc(c(/C=C/c4ccccc4)c3)Oc3cc2cc(c3O[C@@H]2O[C@H](CO)[C@@H](O)[C@H](O)[C@H]2O[C@H]2C[C@](C)(N)[C@H](O)[C@H](C)O2)Oc2ccc(cc2Cl)[C@H]1O
MIC [1]: 1 µg/mL (≈ 0.659 µM)
MIC [2]: 16 µg/mL (≈ 10.5 µM)
MIC [3]: 1 µg/mL (≈ 0.659 µM)
MIC [4]: 1 µg/mL (≈ 0.659 µM)
MIC [5]: 2 µg/mL (≈ 1.32 µM)
MIC [6]: 64 µg/mL (≈ 42.2 µM)
MIC [7]: > 64 µg/mL
MIC [8]: > 64 µg/mL
MIC [9]: > 64 µg/mL

CN[C@H](CC(C)C)C(=O)N[C@H]1C(=O)N[C@@H](CC(N)=O)C(=O)N[C@H]2C(=O)N[C@H]3C(=O)N[C@H](C(=O)N[C@H](C(=O)O)c4cc(O)cc(O)c4-c4cc3ccc4O)[C@H](O)c3ccc(c(/C=C/c4ccc(OC)cc4)c3)Oc3cc2cc(c3O[C@@H]2O[C@H](CO)[C@@H](O)[C@H](O)[C@H]2O[C@H]2C[C@](C)(N)[C@H](O)[C@H](C)O2)Oc2ccc(cc2Cl)[C@H]1O
MIC [1]: 1 µg/mL (≈ 0.646 µM)
MIC [2]: 16 µg/mL (≈ 10.3 µM)
MIC [3]: 1 µg/mL (≈ 0.646 µM)
MIC [4]: 1 µg/mL (≈ 0.646 µM)
MIC [5]: 2 µg/mL (≈ 1.29 µM)
MIC [6]: 32 µg/mL (≈ 20.7 µM)
MIC [7]: > 64 µg/mL
MIC [8]: > 64 µg/mL
MIC [9]: > 64 µg/mL

CN[C@H](CC(C)C)C(=O)N[C@H]1C(=O)N[C@@H](CC(N)=O)C(=O)N[C@H]2C(=O)N[C@H]3C(=O)N[C@H](C(=O)N[C@H](C(=O)O)c4cc(O)cc(O)c4-c4cc3ccc4O)[C@H](O)c3ccc(c(/C=C/c4ccc(C(F)(F)F)cc4)c3)Oc3cc2cc(c3O[C@@H]2O[C@H](CO)[C@@H](O)[C@H](O)[C@H]2O[C@H]2C[C@](C)(N)[C@H](O)[C@H](C)O2)Oc2ccc(cc2Cl)[C@H]1O
MIC [1]: 1 µg/mL (≈ 0.631 µM)
MIC [2]: 64 µg/mL (≈ 40.4 µM)
MIC [3]: 1 µg/mL (≈ 0.631 µM)
MIC [4]: 1 µg/mL (≈ 0.631 µM)
MIC [5]: 2 µg/mL (≈ 1.26 µM)
MIC [6]: 2 µg/mL (≈ 1.26 µM)
MIC [7]: > 64 µg/mL
MIC [8]: 64 µg/mL (≈ 40.4 µM)
MIC [9]: 32 µg/mL (≈ 20.2 µM)

CN[C@H](CC(C)C)C(=O)N[C@H]1C(=O)N[C@@H](CC(N)=O)C(=O)N[C@H]2C(=O)N[C@H]3C(=O)N[C@H](C(=O)N[C@H](C(=O)O)c4cc(O)cc(O)c4-c4cc3ccc4O)[C@H](O)c3ccc(c(-c4ccccc4)c3)Oc3cc2cc(c3O[C@@H]2O[C@H](CO)[C@@H](O)[C@H](O)[C@H]2O[C@H]2C[C@](C)(N)[C@H](O)[C@H](C)O2)Oc2ccc(cc2Cl)[C@H]1O
MIC [1]: 4 µg/mL (≈ 2.68 µM)
MIC [2]: 64 µg/mL (≈ 42.9 µM)
MIC [3]: 2 µg/mL (≈ 1.34 µM)
MIC [4]: 4 µg/mL (≈ 2.68 µM)
MIC [5]: 4 µg/mL (≈ 2.68 µM)
MIC [6]: 64 µg/mL (≈ 42.9 µM)
MIC [7]: > 64 µg/mL
MIC [8]: > 64 µg/mL
MIC [9]: > 64 µg/mL

CN[C@H](CC(C)C)C(=O)N[C@H]1C(=O)N[C@@H](CC(N)=O)C(=O)N[C@H]2C(=O)N[C@H]3C(=O)N[C@H](C(=O)N[C@H](C(=O)O)c4cc(O)cc(O)c4-c4cc3ccc4O)[C@H](O)c3ccc(c(-c4ccc(OC)cc4)c3)Oc3cc2cc(c3O[C@@H]2O[C@H](CO)[C@@H](O)[C@H](O)[C@H]2O[C@H]2C[C@](C)(N)[C@H](O)[C@H](C)O2)Oc2ccc(cc2Cl)[C@H]1O
MIC [1]: 4 µg/mL (≈ 2.63 µM)
MIC [2]: > 64 µg/mL
MIC [3]: 2 µg/mL (≈ 1.31 µM)
MIC [4]: 4 µg/mL (≈ 2.63 µM)
MIC [5]: 4 µg/mL (≈ 2.63 µM)
MIC [6]: > 64 µg/mL
MIC [7]: > 64 µg/mL
MIC [8]: > 64 µg/mL
MIC [9]: > 64 µg/mL

CN[C@H](CC(C)C)C(=O)N[C@H]1C(=O)N[C@@H](CC(N)=O)C(=O)N[C@H]2C(=O)N[C@H]3C(=O)N[C@H](C(=O)N[C@H](C(=O)O)c4cc(O)cc(O)c4-c4cc3ccc4O)[C@H](O)c3ccc(c(/C=C/CCCc4ccccc4)c3)Oc3cc2cc(c3O[C@@H]2O[C@H](CO)[C@@H](O)[C@H](O)[C@H]2O[C@H]2C[C@](C)(N)[C@H](O)[C@H](C)O2)Oc2ccc(cc2Cl)[C@H]1O
MIC [1]: 1 µg/mL (≈ 0.641 µM)
MIC [2]: > 64 µg/mL
MIC [3]: 2 µg/mL (≈ 1.28 µM)
MIC [4]: 1 µg/mL (≈ 0.641 µM)
MIC [5]: 2 µg/mL (≈ 1.28 µM)
MIC [6]: > 64 µg/mL
MIC [7]: > 64 µg/mL
MIC [8]: > 64 µg/mL
MIC [9]: > 64 µg/mL

CN[C@H](CC(C)C)C(=O)N[C@H]1C(=O)N[C@@H](CC(N)=O)C(=O)N[C@H]2C(=O)N[C@H]3C(=O)N[C@H](C(=O)N[C@H](C(=O)O)c4cc(O)cc(O)c4-c4cc3ccc4O)[C@H](O)c3ccc(c(/C=C/c4ccc(-c5ccccc5)cc4)c3)Oc3cc2cc(c3O[C@@H]2O[C@H](CO)[C@@H](O)[C@H](O)[C@H]2O[C@H]2C[C@](C)(N)[C@H](O)[C@H](C)O2)Oc2ccc(cc2Cl)[C@H]1O
MIC [1]: 0.25 µg/mL (≈ 0.157 µM)
MIC [2]: > 64 µg/mL
MIC [3]: 0.25 µg/mL (≈ 0.157 µM)
MIC [4]: 0.25 µg/mL (≈ 0.157 µM)
MIC [5]: 0.5 µg/mL (≈ 0.314 µM)
MIC [6]: 2 µg/mL (≈ 1.26 µM)
MIC [7]: 64 µg/mL (≈ 40.2 µM)
MIC [8]: 32 µg/mL (≈ 20.1 µM)
MIC [9]: 0.5 µg/mL (≈ 0.314 µM)

C/C=C/c1cc2ccc1Oc1cc3cc(c1O[C@@H]1O[C@H](CO)[C@@H](O)[C@H](O)[C@H]1O[C@H]1C[C@](C)(N)[C@H](O)[C@H](C)O1)Oc1ccc(cc1/C=C/C)[C@@H](O)[C@@H](NC(=O)[C@@H](CC(C)C)NC)C(=O)N[C@@H](CC(N)=O)C(=O)N[C@H]3C(=O)N[C@H]1C(=O)N[C@H](C(=O)N[C@H](C(=O)O)c3cc(O)cc(O)c3-c3cc1ccc3O)[C@@H]2O
MIC [1]: 1 µg/mL (≈ 0.685 µM)
MIC [2]: 64 µg/mL (≈ 43.8 µM)
MIC [3]: 1 µg/mL (≈ 0.685 µM)
MIC [4]: 2 µg/mL (≈ 1.37 µM)
MIC [5]: 2 µg/mL (≈ 1.37 µM)
MIC [6]: > 64 µg/mL
MIC [7]: > 64 µg/mL
MIC [8]: > 64 µg/mL
MIC [9]: > 64 µg/mL

C/C=C/c1cc2ccc1Oc1cc3cc(c1O[C@@H]1O[C@H](CO)[C@@H](O)[C@H](O)[C@H]1O[C@H]1C[C@](C)(N)[C@H](O)[C@H](C)O1)Oc1ccc(cc1/C=C/CCCCCC)[C@@H](O)[C@@H]1NC(=O)[C@H](NC(=O)[C@@H]3NC(=O)[C@H](CC(N)=O)NC(=O)[C@H](NC(=O)[C@@H](CC(C)C)NC)[C@@H]2O)c2ccc(O)c(c2)-c2c(O)cc(O)cc2[C@@H](C(=O)O)NC1=O
MIC [1]: 32 µg/mL (≈ 20.9 µM)
MIC [2]: > 64 µg/mL
MIC [3]: 32 µg/mL (≈ 20.9 µM)
MIC [4]: 32 µg/mL (≈ 20.9 µM)
MIC [5]: 64 µg/mL (≈ 41.8 µM)
MIC [6]: > 64 µg/mL
MIC [7]: > 64 µg/mL
MIC [8]: > 64 µg/mL
MIC [9]: > 64 µg/mL

CN[C@H](CC(C)C)C(=O)N[C@H]1C(=O)N[C@@H](CC(N)=O)C(=O)N[C@H]2C(=O)N[C@H]3C(=O)N[C@H](C(=O)N[C@H](C(=O)O)c4cc(O)cc(O)c4-c4cc3ccc4O)[C@H](O)c3ccc(c(Cl)c3)Oc3cc2cc(c3O[C@@H]2O[C@H](CO)[C@@H](O)[C@H](O)[C@H]2O[C@H]2C[C@](C)(N)[C@H](O)[C@H](C)O2)Oc2ccc(cc2Cl)[C@H]1O [VANCOMYCIN]
MIC [2]: > 64 µg/mL
Kd [10]: 3.39 µM
MIC [4]: 2 µg/mL (≈ 1.38 µM)
MIC [7]: > 64 µg/mL
MIC [8]: > 64 µg/mL
MIC [9]: > 64 µg/mL

— ChEMBL document CHEMBL1155426, “Discovery of a novel series of semisynthetic vancomycin derivatives effective against vancomycin-resistant bacteria” (J Med Chem, 2010)
